Patent US20220387276A1, “Composition Comprising Oils, Free Fatty Acids And Squalene” (Clariant International Ltd., priority 2021, published 2022)

Format: physicochemical
Experimental: The oxidative stability at 90° C. was determined according to DIN EN ISO 6886 for the blend of Example 1 and compared with the oxidative stability of squalene.

Induction time (oxidative stability): 4.84 h
SMILES: CC(C)=CCC/C(C)=C/CC/C(C)=C/CC/C=C(\C)CC/C=C(\C)CCC=C(C)C [squalene]
